Several values for one entry are separate records, joined by “and”; a condition that tells them apart may be missing. Identical values can stand only once.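 Grown in 96-well plates, cells were treated for 48 hours with each compound at five concentrations. Insufficient inhibition: endpoint recorded as highest concentration tested. Here, GI50 denotes the concentration required for 50% inhibition of growth. TGI denotes the concentration required for complete inhibition of growth.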
Experiments:
Experiment in all cases: NCI-60 cell line screen, 48 h
ACHN renal = test system: ACHN renal
HT29 colon = test system: HT29 colon
UACC-257 melanoma = test system: UACC-257 melanoma
KM12 colon = test system: KM12 colon
OVCAR-4 ovarian = test system: OVCAR-4 ovarian
SNB-75 CNS = test system: SNB-75 CNS
HOP-62 NSCLC = test system: HOP-62 NSCLC
SR leukemia = test system: SR leukemia
HCC-2998 colon = test system: HCC-2998 colon

SMILES	GI50 (ACHN renal)	TGI (ACHN renal) [µM]	GI50 (HT29 colon)	TGI (HT29 colon) [µM]	GI50 (UACC-257 melanoma)	TGI (UACC-257 melanoma) [µM]	GI50 (KM12 colon)	TGI (KM12 colon) [µM]	GI50 (OVCAR-4 ovarian)	TGI (OVCAR-4 ovarian) [µM]	GI50 (SNB-75 CNS)	TGI (SNB-75 CNS)	GI50 (HOP-62 NSCLC)	TGI (HOP-62 NSCLC) [µM]	GI50 (SR leukemia)	TGI (SR leukemia) [µM]	GI50 (HCC-2998 colon) [µM]	TGI (HCC-2998 colon) [µM]
O=[N+]([O-])/C=C\c1ccc2c(c1)OCO2	4.21 µM	16.2	2.07 µM	4.89	1.64 µM	3.77	2.04 µM	4.43	11.8 µM	24.2	10.3 µM	22.2 µM	13.3 µM	27	2.73 µM	8.06		
CCc1ccc(C2=C(O)C(=O)C(c3ccc(CC)cc3)=C(O)C2=O)cc1	2.01 µM	6.28	2.34 µM	7.79	2.95 µM	11.1	1.69 µM	4.04	2.18 µM	7.75	1.37 µM	4.19 µM	1.5 µM	3.42	1.91 µM	5.07	2.09	5.75
CN(C)CCNc1cccc2sc3ccc(O)cc3c(=O)c12	1.43 µM	3.78	1.63 µM	4.08	1.7 µM	3.21	3.22 µM	14.3	2.75 µM	12.3	2.33 µM	12.2 µM	2.29 µM	6.58	1.08 µM	4.37	1.56	3.1
OC1CCC(Oc2cccc3cnc(Nc4ccc5nc[nH]c5c4)nc23)CC1 (stereo not given)	0.313 µM	> 100	0.437 µM	9.15	1.2 µM	8.92	0.23 µM	11.9	1.06 µM	16	0.12 µM	2.21 µM	0.331 µM	14.9	0.143 µM	0.671	0.708	9.09
O=C1/C(=C\c2cccs2)Oc2ccccc21		> 100		> 100		> 100		> 100		> 100		> 100 µM		> 100		> 100		> 100
COc1cc(C(C#N)NNC(=O)c2ccccc2O)ccc1O (stereo not given)		> 100		> 100		92.9		> 100		> 100		8.46 µM		> 100		> 100		
Cc1cc(O)cc(C)c1/C=C/c1cncc(C(=O)N(C)C)c1	> 25 µM	> 25	> 25 µM	> 25	> 25 µM	> 25	> 25 µM	> 25	> 25 µM	> 25	> 13.7 µM	> 25 µM	> 25 µM	> 25			> 25	> 25
N#C/C(=C(\O)C(=O)O)c1ccc(-c2cccc3ccccc23)cc1		> 100		> 100		> 100		> 100		> 100		> 100 µM		> 100		> 100		
c1cc(-c2sc(-c3ccncc3)c(-c3ccncc3)c2-c2ccncc2)ccn1		42.9		27.7		31.8		65.5		> 100		40.9 µM		78.1		> 100		19.6
Cc1c2ncccc2c(C)c2c1[nH]c1ccccc12		26.5		25.7		32		29		43.4		22.6 µM		24.1				25.7
Cn1cnc([N+](=O)[O-])c1Sc1ncnc2nc[nH]c12	38.1 µM and 41.7 µM	> 100	7.17 µM and 22.6 µM	> 100	7.86 µM and 8.71 µM	> 100	4.25 µM and 10.8 µM	> 100	3.38 µM and 10.2 µM	> 100	0.461 µM and 3.03 µM	17.1 µM and > 100 µM	0.882 µM and 5.79 µM	> 100	37.9 µM and 4.04 µM	> 100	5.64	> 100
N#CC1C(N)=NNC1c1ccc(-c2ccc(-c3nc4ccccc4o3)cc2)o1 (stereo not given)	14.6 µM	51.7			23.1 µM	> 100	24 µM	93.8	90.8 µM	> 100	> 100 µM	> 100 µM	> 100 µM	> 100	> 100 µM	> 100		
O=Nc1c2cccnc2n2nnc3ccc(Cl)cc3c12	0.371 µM	2.02	1.27 µM	14.5	5.87 µM	23.3	1.54 µM	4.75	0.98 µM	3.86	3.19 µM	11.4 µM	4.64 µM	11.4	0.0458 µM	2.99	1.72	4.95
OCC1OC(N2C=C(c3nc4ccccc4s3)C3C=CC=CC32)C(O)C1O (stereo not given)	4.36 µM	12.4	9.52 µM	25.2	9.17 µM	22.1	8.95 µM	23.4	14.3 µM	> 50	7.8 µM	26 µM	16 µM	> 50	2.34 µM	> 50		
O=C1NC(=O)C(c2ccccc2Cl)=C1Nc1cccc(O)c1	> 25 µM	> 25	2.79 µM	> 25	> 25 µM	> 25	2.51 µM	> 25	7.02 µM	> 25	6.76 µM	> 20.2 µM	3.89 µM	> 25	1.97 µM	> 25	> 25	> 25
O=c1c(OC/C(=N/O)c2ccccc2)c(-c2ccccc2)oc2ccccc12	10.5 µM	28	13.7 µM	34.3	14.1 µM	30.4	10.6 µM	24.6	38.6 µM	> 50	16.8 µM	> 50 µM	20.3 µM	> 50	13.9 µM	> 50	9.64	17.5

From PubChem BioAssay (NCI)
